Reference: PubChem BioAssay AID1259407 (Chemical Carcinogenesis Research Information System (CCRIS), 2018)
Calls of active or inactive are those of the source. The rule behind the calls is not given here.

Tested on: CCRIS mutagenicity, Ames/micronucleus/aberration tests
Assay: CCRIS mutagenicity studies
Conditions: Test System: AMES SALMONELLA TYPHIMURIUM, Method: PREINCUBATION
[1] = Strain/Indicator: TA98, Metabolic Activation: NONE
[2] = Strain/Indicator: TA100, Metabolic Activation: NONE
[3] = Strain/Indicator: TA1535, Metabolic Activation: NONE

Measured: mutagenic call

CC(C)(O)C#N
inactive: Strain/Indicator: TA97, Metabolic Activation: HAMSTER, LIVER, S-9, AROCLOR 1254 (10 OR 30%) inactive; negative | Strain/Indicator: TA97, Metabolic Activation: NONE inactive; negative | Strain/Indicator: TA97, Metabolic Activation: RAT, LIVER, S-9, AROCLOR 1254 (10%) inactive; negative | Strain/Indicator: TA97, Metabolic Activation: RAT, LIVER, S-9, AROCLOR 1254 (30%) inactive; negative | Strain/Indicator: TA98, Metabolic Activation: HAMSTER, LIVER, S-9, AROCLOR 1254 (10 OR 30%) inactive; negative | [1] inactive; negative | Strain/Indicator: TA98, Metabolic Activation: RAT, LIVER, S-9, AROCLOR 1254 (10%) inactive; negative | Strain/Indicator: TA98, Metabolic Activation: RAT, LIVER, S-9, AROCLOR 1254 (30%) inactive; negative | Strain/Indicator: TA100, Metabolic Activation: HAMSTER, LIVER, S-9, AROCLOR 1254 (10 OR 30%) inactive; negative | [2] inactive; negative | Strain/Indicator: TA100, Metabolic Activation: RAT, LIVER, S-9, AROCLOR 1254 (10%) inactive; negative | Strain/Indicator: TA100, Metabolic Activation: RAT, LIVER, S-9, AROCLOR 1254 (30%) inactive; negative | Strain/Indicator: TA1535, Metabolic Activation: HAMSTER, LIVER, S-9, AROCLOR 1254 (10 OR 30%) inactive; negative | [3] inactive; negative | Strain/Indicator: TA1535, Metabolic Activation: RAT, LIVER, S-9, AROCLOR 1254 (10%) inactive; negative | Strain/Indicator: TA1535, Metabolic Activation: RAT, LIVER, S-9, AROCLOR 1254 (30%) inactive; negative

O=[N+]([O-])c1cc(Cl)c(Cl)c(Cl)c1Cl
inactive: Strain/Indicator: TA98, Metabolic Activation: HAMSTER, LIVER, S-9, AROCLOR 1254 inactive; negative | [1] inactive; negative | Strain/Indicator: TA98, Metabolic Activation: RAT, LIVER, S-9, AROCLOR 1254 inactive; negative | Strain/Indicator: TA100, Metabolic Activation: HAMSTER, LIVER, S-9, AROCLOR 1254 inactive; negative | [2] inactive; negative | Strain/Indicator: TA100, Metabolic Activation: RAT, LIVER, S-9, AROCLOR 1254 inactive; negative | Strain/Indicator: TA1535, Metabolic Activation: HAMSTER, LIVER, S-9, AROCLOR 1254 inactive; negative | [3] inactive; negative | Strain/Indicator: TA1535, Metabolic Activation: RAT, LIVER, S-9, AROCLOR 1254 inactive; negative | Strain/Indicator: TA1537, Metabolic Activation: HAMSTER, LIVER, S-9, AROCLOR 1254 inactive; negative | Strain/Indicator: TA1537, Metabolic Activation: NONE inactive; negative | Strain/Indicator: TA1537, Metabolic Activation: RAT, LIVER, S-9, AROCLOR 1254 inactive; negative
